Assay results from patent US4226610A, “Herbicidal compounds, preparation thereof and herbicides containing the same” (Meiji Selka Kaisha, Ltd., priority 1978, dated 1980).
Counter-ions that a name gives are not always drawn.

Tests used:
lace shrub = assay: Experiment 3 foliar application to naturally growing shrubs; format: in vivo, Stephanandra incisa Zabel; conditions: after 3 months; note: key: -: no reproduction, namely complete suppression of reproduction; ±: remarkable suppression of reproduction; +: considerable suppression of reproduction; ++: medium supprestion of reproduction; +++: no suppression of reproduction
In short: (§1)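 Sprays contained 0.1% octylphenyl polyoxyethanol and compound diluted to prescribed concentrations. They were applied to the leaves of wild shrubs at a rate of 150 liter per 10 are. Damage was rated 0–5 after one and three months, and regrowth − to +++ after three months.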

manna grass = assay: Experiment 1 foliar application to naturally growing weeds; format: in vivo, Digitaria adsceudes Henr.; conditions: monosodium salt; for Reproduction-inhibiting effect: 2 months
In short: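 Dilute compounds to prescribed concentrations; add 0.1% octylphenyl polyoxyethanol; spray foliage of in-situ weeds at 150 liter per 10 are. Score killing 0–5 on day 21. Score reproduction (-) to (+++) at month 2 (cockspar grass) or month 4 (chigaya, azumanezasa, warunasubi).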

cockspar grass = assay: as above; format: in vivo, Echinochloa Crusgalli P. Beauv.; conditions: monosodium salt; for Reproduction-inhibiting effect: 2 months
In short: (§2)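 Foliar spray on field weeds at 150 liter per 10 are, compounds at prescribed concentrations plus 0.1% octylphenyl polyoxyethanol. Day 21: killing index 0–5 (5 = death). Reproduction scored (-) to (+++) (- = none): cockspar grass at 2 months, chigaya, azumanezasa and warunasubi at 4 months.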

Japanese prickly ash = assay: Experiment 3 foliar application to naturally growing shrubs; format: in vivo, Xanthoxylum piperitum DC.; conditions: after 3 months; note: key: -: no reproduction, namely complete suppression of reproduction; ±: remarkable suppression of reproduction; +: considerable suppression of reproduction; ++: medium supprestion of reproduction; +++: no suppression of reproduction
In short: as §1

kiichigo = assay: as above; format: in vivo, Rubus palmatsu Thunb. forma coptophyllus Makino; conditions: after 3 months; note: key: -: no reproduction, namely complete suppression of reproduction; ±: remarkable suppression of reproduction; +: considerable suppression of reproduction; ++: medium supprestion of reproduction; +++: no suppression of reproduction
In short: as §1

azumanezasa = assay: Experiment 1 foliar application to naturally growing weeds; format: in vivo, Pleioblastus Chino Makino; conditions: 4 months; note: key: -: no reproduction, namely complete suppression of reproduction; ±: remarkable suppression of reproduction; +: considerable suppression of reproduction; ++: medium supprestion of reproduction; +++: no suppression of reproduction
In short: as §2

torch azalea = assay: Experiment 3 foliar application to naturally growing shrubs; format: in vivo, Rhododendoron Kaempferi Planch.; conditions: after 3 months
In short: as §1

oak = assay: as above; format: in vivo, Quercus serrata Thunb; conditions: after 3 months
In short: as §1

white clover = assay: Experiment 1 foliar application to naturally growing weeds; format: in vivo, Trifolium repens L.; conditions: monosodium salt; for Reproduction-inhibiting effect: 4 months
In short: (§3)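 Read-outs were a 0–5 killing index at 21 days and a reproduction score from (-), no reproduction, to (+++), no suppression. Reproduction was read at 2 months for cockspar grass and 4 months for the other species, after foliar spraying at 150 liter per 10 are with 0.1% surfactant.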

eulalia = assay: Experiment 2 foliar application in Japanese cypress afforested land; format: in vivo, Miscanthus sinensis Andress.; parameters: key: 0 = no effect, 5 = death; conditions: 0.125%; after 30 days; monosodium salt
In short: (§4)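 Field foliar spray on shrubs in Japanese cypress afforested land at 150 liter per 10 are, with compounds at prescribed concentrations. Killing index scored from 0 (no effect) to 5 (death) at 30 days and 3 months. Plant heights ranged from about 50 to 100 cm.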

yamazakura = assay: Experiment 3 foliar application to naturally growing shrubs; format: in vivo, Prunus donarium Sieb. var. spontanae Makino; conditions: after 3 months
In short: as §1

water hyacinth = assay: Experiment 5 foliar application to water hyacinths; format: in vivo, Eichhornia crassipes Solms; conditions: 3 months, listed as DL-AMPB monosodium salt, monosodium salt
In short: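 Two plants floated in fertilized water per vessel, sprayed foliarly with 0.1 or 0.2% aqueous compound solutions at 100 liter per 10 are plus 0.1% octylphenyl polyoxyethanol. Killing index (0 no effect to 5 death) scored at 21 days and 3 months; reproduction inhibition scored (-) to (+++) at 3 months.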

chigaya = assay: Experiment 1 foliar application to naturally growing weeds; format: in vivo, Imperata cylindrica Beauv.; conditions: 4 months
In short: as §2

warunasubi = assay: as above; format: in vivo, Solanum carolinensis L.; conditions: 4 months, monosodium salt
In short: as §2

Japanese bush cranberry = assay: Experiment 3 foliar application to naturally growing shrubs; format: in vivo, Viburnum dilatatum Thunb.; conditions: after 3 months
In short: as §1

purple nutsedge = assay: Experiment 1 foliar application to naturally growing weeds; format: in vivo, Cyperus rotundus L.; conditions: 4 months, monosodium salt
In short: as §3

yabugarashi = assay: as above; format: in vivo, Cayratia japonica Houtt.; conditions: 4 months, monosodium salt
In short: as §3

chestnut = assay: Experiment 2 foliar application in Japanese cypress afforested land; format: in vivo, Castanea crenata Sieb et Zucc.; conditions: 0.063%; after 30 days; monosodium salt
Description: The detail of the assessment made in the following Experiments of the invention was as follows:
The compounds of the invention and other compounds listed in Table 4. were diluted to prescribed concentrations and sprayed to shrubs by foliar application in a Japanese cypress afforested land in an amount of 150 liter per 10 are.
After 30 days and 3 months, the killing index (0, no effect; 5, death) was determined.
The heights of plants were 50-70 cm. for Japanese cypress, about 50 cm. for chestnut, 50-90 cm. for miyakozasa, about 100 cm. for eulalia and 70-100 cm. for kumaichigo, respectively.

kumaichigo = assay: as above; format: in vivo, Rubus crataegifolius Bunge; conditions: 0.063%; after 30 days; monosodium salt
In short: as §4

hedge bindweed = assay: Experiment 1 foliar application to naturally growing weeds; format: in vivo, Calystegis hederacea Wall.; conditions: 4 months, monosodium salt
In short: as §3

In the case of `CP(=O)(O)CCC(N)C(=O)O` (racemic) [DL-2-Amino-4-methylphosphinobutanoic acid monosodium salt], the Reproduction-inhibiting (lace shrub; 0.05%, monosodium salt) is reported as “+++”, the Reproduction-inhibiting (lace shrub; 0.1%, monosodium salt) is reported as “++” and the Reproduction-inhibiting (lace shrub; 0.2%) is reported as “-”. The Reproduction-inhibiting effect (manna grass; 0.05%) was “+++”, the Reproduction-inhibiting effect (manna grass; 0.1%) was “++” and the Reproduction-inhibiting effect (manna grass; 0.2%) was “±”. The “Killing index of Upperground parts” value (manna grass; 0.2%, 21 days) was 4.5, the Reproduction-inhibiting effect (cockspar grass; 0.05%) was “+ ++” and the Reproduction-inhibiting effect (cockspar grass; 0.1%) was “++”. For the same compound, the Reproduction-inhibiting effect (cockspar grass; 0.2%) was “±”, the “Killing index of Upperground parts” value (cockspar grass; 0.2%, 21 days) was 4.5 and the Reproduction-inhibiting (Japanese prickly ash; 0.05%, monosodium salt) was “+++”. The Reproduction-inhibiting (Japanese prickly ash; 0.1%, monosodium salt) was “++”, the Reproduction-inhibiting (Japanese prickly ash; 0.2%) was “-” and the Reproduction-inhibiting (kiichigo; 0.05%, monosodium salt) was “+++”. The Reproduction-inhibiting (kiichigo; 0.1%, monosodium salt) was “++”, the Reproduction-inhibiting (kiichigo; 0.2%) was “-” and the Reproduction-inhibiting effect (azumanezasa; 0.05%, monosodium salt) was “+++”. The Reproduction-inhibiting effect (azumanezasa; 0.1%, monosodium salt) was “+”, the Reproduction-inhibiting effect (azumanezasa; 0.2%) was “-” and the Reproduction-inhibiting (torch azalea; 0.05%, monosodium salt) was “+++”. For the same compound, the Reproduction-inhibiting (torch azalea; 0.1%, monosodium salt) was “++”, the Reproduction-inhibiting (torch azalea; 0.2%) was “-” and the Reproduction-inhibiting (oak; 0.05%, monosodium salt) was “+++”. For the same compound, the Reproduction-inhibiting (oak; 0.1%, monosodium salt) was “++”, the Reproduction-inhibiting (oak; 0.2%) was “-” and the Reproduction-inhibiting effect (white clover; 0.05%) was “+++”. For the same compound, the Reproduction-inhibiting effect (white clover; 0.1%) was “+++”, the Reproduction-inhibiting effect (white clover; 0.2%) was “+” and the “Killing index of Upperground parts” value (white clover; 0.2%, 21 days) was 4.5. The Killing index (eulalia) was 2.5, the Reproduction-inhibiting (yamazakura; 0.05%, monosodium salt) was “+++” and the Reproduction-inhibiting (yamazakura; 0.1%, monosodium salt) was “++”. The Reproduction-inhibiting (yamazakura; 0.2%) was “-”, the Reproduction-inhibiting effect (water hyacinth; 0.1%) was “++” and the Reproduction-inhibiting effect (water hyacinth; 0.2%) was “±”. The Reproduction-inhibiting effect (chigaya; 0.05%, monosodium salt) was “++”, the Reproduction-inhibiting effect (chigaya; 0.1%, monosodium salt) was “++” and the Reproduction-inhibiting effect (chigaya; 0.2%) was “-”. The Reproduction-inhibiting effect (warunasubi; 0.05%) was “+++”, the Reproduction-inhibiting effect (warunasubi; 0.1%) was “+++” and the Reproduction-inhibiting effect (warunasubi; 0.2%) was “+”. The Reproduction-inhibiting (Japanese bush cranberry; 0.05%) was “+++”, the Reproduction-inhibiting (Japanese bush cranberry; 0.1%) was “++” and the Reproduction-inhibiting (Japanese bush cranberry; 0.2%, monosodium salt) was “+ +”. For the same compound, the Reproduction-inhibiting effect (purple nutsedge; 0.05%) was “+++”, the Reproduction-inhibiting effect (purple nutsedge; 0.1%) was “+++” and the Reproduction-inhibiting effect (purple nutsedge; 0.2%) was “+”. The Reproduction-inhibiting effect (yabugarashi; 0.05%) was “+++”, the Reproduction-inhibiting effect (yabugarashi; 0.1%) was “+++” and the Reproduction-inhibiting effect (yabugarashi; 0.2%) was “++”. The Killing index (chestnut) was 0.5, the Killing index (kumaichigo) was 1.5 and the Reproduction-inhibiting effect (hedge bindweed; 0.05%) was “+++”. For the same compound, the Reproduction-inhibiting effect (hedge bindweed; 0.1%) was “+++” and the Reproduction-inhibiting effect (hedge bindweed; 0.2%) was “+++”.
